Measurements reported in the NIST ThermoML archive (doi:10.1016/j.fluid.2014.06.021).
± gives the expanded uncertainty stated by the source.

Test: activity coefficient (dimensionless); of the first substance listed, at infinite dilution; xn = mol fraction of the nth substance listed
Conditions: 101.33 kPa, Liquid, Chromatography, x1 = 0

CCCC(C)=O [pentan-2-one] + C[n+]1ccn(CCCCS(=O)(=O)O)c1.O=S(=O)([O-])O
activity coefficient (323.15 K): 13.4 ± 0.92 | activity coefficient (333.15 K): 13.2 ± 0.9 | activity coefficient (343.15 K): 12.5 ± 0.85

CCC(=O)CC [pentan-3-one] + C[n+]1ccn(CCCCS(=O)(=O)O)c1.O=S(=O)([N-]S(=O)(=O)C(F)(F)F)C(F)(F)F
activity coefficient (323.15 K): 0.54 ± 0.04 | activity coefficient (333.15 K): 0.64 ± 0.04 | activity coefficient (343.15 K): 0.77 ± 0.05

CCC(=O)CC [pentan-3-one] + C[n+]1ccn(CCCCS(=O)(=O)O)c1.O=S(=O)([O-])C(F)(F)F
activity coefficient (323.15 K): 2.31 ± 0.16 | activity coefficient (333.15 K): 2.33 ± 0.16 | activity coefficient (343.15 K): 2.44 ± 0.17

CCC(=O)CC [pentan-3-one] + C[n+]1ccn(CCCCS(=O)(=O)O)c1.O=S(=O)([O-])O
activity coefficient (323.15 K): 14.2 ± 0.97 | activity coefficient (333.15 K): 13.8 ± 0.94 | activity coefficient (343.15 K): 13.2 ± 0.9

CCCO [propan-1-ol] + C[n+]1ccn(CCCCS(=O)(=O)O)c1.O=S(=O)([N-]S(=O)(=O)C(F)(F)F)C(F)(F)F
activity coefficient (333.15 K): 0.13 ± 0.03 | activity coefficient (343.15 K): 0.16 ± 0.03

CC(C)O [propan-2-ol] + C[n+]1ccn(CCCCS(=O)(=O)O)c1.O=S(=O)([N-]S(=O)(=O)C(F)(F)F)C(F)(F)F
activity coefficient (333.15 K): 0.09 ± 0.03 | activity coefficient (343.15 K): 0.11 ± 0.03

ClC(Cl)(Cl)Cl [tetrachloromethane] + C[n+]1ccn(CCCCS(=O)(=O)O)c1.O=S(=O)([N-]S(=O)(=O)C(F)(F)F)C(F)(F)F
activity coefficient (323.15 K): 7.71 ± 0.53 | activity coefficient (333.15 K): 7.99 ± 0.54 | activity coefficient (343.15 K): 8.1 ± 0.6

ClC(Cl)(Cl)Cl [tetrachloromethane] + C[n+]1ccn(CCCCS(=O)(=O)O)c1.O=S(=O)([O-])C(F)(F)F
activity coefficient (323.15 K): 12.4 ± 0.85 | activity coefficient (333.15 K): 12.1 ± 0.83 | activity coefficient (343.15 K): 11.4 ± 0.78

CCCCCCCCCCCCCC [tetradecane] + C[n+]1ccn(CCCCS(=O)(=O)O)c1.O=S(=O)([N-]S(=O)(=O)C(F)(F)F)C(F)(F)F
activity coefficient (323.15 K): 1180 ± 81 | activity coefficient (333.15 K): 1060 ± 73 | activity coefficient (343.15 K): 941 ± 65

CCCCCCCCCCCCCC [tetradecane] + C[n+]1ccn(CCCCS(=O)(=O)O)c1.O=S(=O)([O-])O
activity coefficient (323.15 K): 1910 ± 130 | activity coefficient (333.15 K): 1750 ± 120 | activity coefficient (343.15 K): 1680 ± 120

c1ccsc1 [thiophene] + C[n+]1ccn(CCCCS(=O)(=O)O)c1.O=S(=O)([N-]S(=O)(=O)C(F)(F)F)C(F)(F)F
activity coefficient (323.15 K): 0.83 ± 0.05 | activity coefficient (333.15 K): 0.83 ± 0.05 | activity coefficient (343.15 K): 0.82 ± 0.05

c1ccsc1 [thiophene] + C[n+]1ccn(CCCCS(=O)(=O)O)c1.O=S(=O)([O-])C(F)(F)F
activity coefficient (323.15 K): 2.24 ± 0.15 | activity coefficient (333.15 K): 2.23 ± 0.15 | activity coefficient (343.15 K): 2.22 ± 0.15

c1ccsc1 [thiophene] + C[n+]1ccn(CCCCS(=O)(=O)O)c1.O=S(=O)([O-])O
activity coefficient (323.15 K): 6.56 ± 0.45 | activity coefficient (333.15 K): 6.43 ± 0.44 | activity coefficient (343.15 K): 6.13 ± 0.42

Cc1ccccc1 [toluene] + C[n+]1ccn(CCCCS(=O)(=O)O)c1.O=S(=O)([N-]S(=O)(=O)C(F)(F)F)C(F)(F)F
activity coefficient (323.15 K): 3.1 ± 0.2 | activity coefficient (333.15 K): 3.28 ± 0.22 | activity coefficient (343.15 K): 3.31 ± 0.23

Cc1ccccc1 [toluene] + C[n+]1ccn(CCCCS(=O)(=O)O)c1.O=S(=O)([O-])C(F)(F)F
activity coefficient (323.15 K): 5.74 ± 0.39 | activity coefficient (333.15 K): 5.54 ± 0.38 | activity coefficient (343.15 K): 5.54 ± 0.38

Cc1ccccc1 [toluene] + C[n+]1ccn(CCCCS(=O)(=O)O)c1.O=S(=O)([O-])O
activity coefficient (323.15 K): 28.3 ± 1.9 | activity coefficient (333.15 K): 26.6 ± 1.8 | activity coefficient (343.15 K): 24.9 ± 1.7

ClC(Cl)Cl [trichloromethane] + C[n+]1ccn(CCCCS(=O)(=O)O)c1.O=S(=O)([N-]S(=O)(=O)C(F)(F)F)C(F)(F)F
activity coefficient (323.15 K): 1.81 ± 0.12 | activity coefficient (333.15 K): 1.83 ± 0.12 | activity coefficient (343.15 K): 1.86 ± 0.13

ClC(Cl)Cl [trichloromethane] + C[n+]1ccn(CCCCS(=O)(=O)O)c1.O=S(=O)([O-])C(F)(F)F
activity coefficient (323.15 K): 2.12 ± 0.14 | activity coefficient (333.15 K): 2.18 ± 0.15 | activity coefficient (343.15 K): 2.19 ± 0.15

ClC(Cl)Cl [trichloromethane] + C[n+]1ccn(CCCCS(=O)(=O)O)c1.O=S(=O)([O-])O
activity coefficient (323.15 K): 6.65 ± 0.45 | activity coefficient (333.15 K): 6.73 ± 0.46 | activity coefficient (343.15 K): 6.84 ± 0.47

CCCCCCCCCCCCC [tridecane] + C[n+]1ccn(CCCCS(=O)(=O)O)c1.O=S(=O)([N-]S(=O)(=O)C(F)(F)F)C(F)(F)F
activity coefficient (323.15 K): 1080 ± 75 | activity coefficient (333.15 K): 911 ± 63 | activity coefficient (343.15 K): 832 ± 57

CCCCCCCCCCCCC [tridecane] + C[n+]1ccn(CCCCS(=O)(=O)O)c1.O=S(=O)([O-])C(F)(F)F
activity coefficient (323.15 K): 1940 ± 130 | activity coefficient (333.15 K): 1550 ± 110 | activity coefficient (343.15 K): 1220 ± 84

CCCCCCCCCCCCC [tridecane] + C[n+]1ccn(CCCCS(=O)(=O)O)c1.O=S(=O)([O-])O
activity coefficient (323.15 K): 1540 ± 110 | activity coefficient (333.15 K): 1410 ± 97 | activity coefficient (343.15 K): 1350 ± 93

CCCCCCCCCCC [undecane] + C[n+]1ccn(CCCCS(=O)(=O)O)c1.O=S(=O)([N-]S(=O)(=O)C(F)(F)F)C(F)(F)F
activity coefficient (323.15 K): 515 ± 35 | activity coefficient (333.15 K): 448 ± 31 | activity coefficient (343.15 K): 425 ± 29

CCCCCCCCCCC [undecane] + C[n+]1ccn(CCCCS(=O)(=O)O)c1.O=S(=O)([O-])O
activity coefficient (323.15 K): 1490 ± 100 | activity coefficient (333.15 K): 1370 ± 94 | activity coefficient (343.15 K): 1310 ± 90
